The text below walks through data of ChEMBL document CHEMBL1152560, “Substituted 2-arylbenzothiazoles as kinase inhibitors: hit-to-lead optimization” (Bioorg Med Chem, 2009).

The target of assay [1] is Death-associated protein kinase 3 (Homo sapiens) (UniProt O43293). Kind of assay: Residual activity of DAPK3 at 1 uM by microplate scintillation counting.
Assay [2] concerns the target Serine/threonine-protein kinase pim-1 (Homo sapiens) (UniProt P11309). Kind of assay: Residual activity of PIM1 at 1 uM by microplate scintillation counting.
Assay [3] has as its target Serine/threonine-protein kinase PAK 4 (Homo sapiens) (UniProt O96013). Nature of the assay: Residual activity of PAK4 at 1 uM by microplate scintillation counting.
In assay [4] the target is T1, Muscle, skeletal receptor tyrosine-protein kinase (Homo sapiens) (UniProt O15146).
T1 sequence (whole entry): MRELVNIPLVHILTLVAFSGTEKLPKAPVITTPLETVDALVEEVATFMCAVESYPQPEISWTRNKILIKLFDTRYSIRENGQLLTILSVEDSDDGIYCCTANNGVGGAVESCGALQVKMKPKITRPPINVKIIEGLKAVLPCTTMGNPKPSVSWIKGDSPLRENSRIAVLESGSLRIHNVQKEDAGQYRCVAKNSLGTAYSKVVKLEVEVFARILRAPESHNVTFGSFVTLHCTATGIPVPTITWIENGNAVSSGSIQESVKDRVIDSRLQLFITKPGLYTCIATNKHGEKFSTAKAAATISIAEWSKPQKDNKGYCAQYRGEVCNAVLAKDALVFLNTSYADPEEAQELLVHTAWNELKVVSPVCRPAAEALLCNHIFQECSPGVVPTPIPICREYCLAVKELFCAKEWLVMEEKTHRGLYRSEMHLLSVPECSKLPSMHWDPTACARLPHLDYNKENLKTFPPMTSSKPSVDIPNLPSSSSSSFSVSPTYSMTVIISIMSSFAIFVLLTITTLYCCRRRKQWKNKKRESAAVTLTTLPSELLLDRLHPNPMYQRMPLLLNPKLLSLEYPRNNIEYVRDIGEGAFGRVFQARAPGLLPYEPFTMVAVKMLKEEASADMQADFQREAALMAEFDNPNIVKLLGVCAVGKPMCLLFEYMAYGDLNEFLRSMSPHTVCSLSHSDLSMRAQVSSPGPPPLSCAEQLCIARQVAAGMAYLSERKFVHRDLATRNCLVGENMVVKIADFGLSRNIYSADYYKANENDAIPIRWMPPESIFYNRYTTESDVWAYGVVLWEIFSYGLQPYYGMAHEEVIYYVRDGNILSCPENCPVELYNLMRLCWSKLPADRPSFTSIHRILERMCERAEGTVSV
Kind of assay: Residual activity of MUSK at 0.1 uM by microplate scintillation counting.

In assay [5] the target is Dual specificity tyrosine-phosphorylation-regulated kinase 1B (Homo sapiens) (UniProt Q9Y463). Nature of the assay: Residual activity of DYRK1B at 10 uM by microplate scintillation counting.
Dual specificity tyrosine-phosphorylation-regulated kinase 1B (Homo sapiens), sequence (Q9Y463 whole entry, looked up): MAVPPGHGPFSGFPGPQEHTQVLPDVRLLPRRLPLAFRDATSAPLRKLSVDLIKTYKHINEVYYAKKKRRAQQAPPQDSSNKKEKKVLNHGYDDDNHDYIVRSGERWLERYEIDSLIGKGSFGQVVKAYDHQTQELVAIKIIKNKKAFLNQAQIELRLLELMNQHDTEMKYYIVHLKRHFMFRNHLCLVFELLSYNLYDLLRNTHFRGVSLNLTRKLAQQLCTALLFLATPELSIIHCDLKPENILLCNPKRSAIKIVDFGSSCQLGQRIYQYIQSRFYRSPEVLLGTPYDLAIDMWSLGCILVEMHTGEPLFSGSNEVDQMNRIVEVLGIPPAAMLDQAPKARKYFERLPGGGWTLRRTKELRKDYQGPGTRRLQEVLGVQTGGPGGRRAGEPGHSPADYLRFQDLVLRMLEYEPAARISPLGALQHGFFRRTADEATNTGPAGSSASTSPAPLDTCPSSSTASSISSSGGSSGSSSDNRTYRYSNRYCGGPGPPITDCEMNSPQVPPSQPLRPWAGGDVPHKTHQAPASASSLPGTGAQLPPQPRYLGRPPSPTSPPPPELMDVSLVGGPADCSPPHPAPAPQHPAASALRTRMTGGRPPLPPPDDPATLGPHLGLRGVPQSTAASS
The target in assay [6] is Eukaryotic translation initiation factor 2-alpha kinase 1 (Homo sapiens) (UniProt Q9BQI3). Nature of the assay: Residual activity of HRI at 10 uM by microplate scintillation counting.
Eukaryotic translation initiation factor 2-alpha kinase 1 (Homo sapiens), sequence (Q9BQI3 whole entry): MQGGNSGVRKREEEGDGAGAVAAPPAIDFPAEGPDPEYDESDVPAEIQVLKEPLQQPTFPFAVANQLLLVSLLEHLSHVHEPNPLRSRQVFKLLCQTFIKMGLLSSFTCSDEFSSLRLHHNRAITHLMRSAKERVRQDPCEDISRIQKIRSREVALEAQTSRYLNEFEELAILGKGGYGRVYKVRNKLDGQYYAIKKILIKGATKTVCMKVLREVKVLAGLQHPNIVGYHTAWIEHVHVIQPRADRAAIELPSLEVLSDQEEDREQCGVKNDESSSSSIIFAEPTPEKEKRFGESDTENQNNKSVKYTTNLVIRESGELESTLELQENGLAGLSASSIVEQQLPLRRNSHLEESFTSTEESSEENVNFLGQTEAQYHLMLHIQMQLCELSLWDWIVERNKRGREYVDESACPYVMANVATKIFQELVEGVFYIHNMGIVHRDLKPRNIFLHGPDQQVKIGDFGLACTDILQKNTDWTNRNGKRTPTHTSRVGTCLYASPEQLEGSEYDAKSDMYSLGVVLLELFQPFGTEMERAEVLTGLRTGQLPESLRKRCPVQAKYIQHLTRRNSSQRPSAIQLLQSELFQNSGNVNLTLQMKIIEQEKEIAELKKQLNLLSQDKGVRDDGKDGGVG
Assay [7] has as its target Tyrosine-protein kinase Blk (Homo sapiens) (UniProt P51451). Kind of assay: Residual activity of BLK at 10 uM by microplate scintillation counting.
The target in assay [8] is T2, cGMP-dependent protein kinase 2 (Homo sapiens) (UniProt Q13237).
T2 sequence (whole entry): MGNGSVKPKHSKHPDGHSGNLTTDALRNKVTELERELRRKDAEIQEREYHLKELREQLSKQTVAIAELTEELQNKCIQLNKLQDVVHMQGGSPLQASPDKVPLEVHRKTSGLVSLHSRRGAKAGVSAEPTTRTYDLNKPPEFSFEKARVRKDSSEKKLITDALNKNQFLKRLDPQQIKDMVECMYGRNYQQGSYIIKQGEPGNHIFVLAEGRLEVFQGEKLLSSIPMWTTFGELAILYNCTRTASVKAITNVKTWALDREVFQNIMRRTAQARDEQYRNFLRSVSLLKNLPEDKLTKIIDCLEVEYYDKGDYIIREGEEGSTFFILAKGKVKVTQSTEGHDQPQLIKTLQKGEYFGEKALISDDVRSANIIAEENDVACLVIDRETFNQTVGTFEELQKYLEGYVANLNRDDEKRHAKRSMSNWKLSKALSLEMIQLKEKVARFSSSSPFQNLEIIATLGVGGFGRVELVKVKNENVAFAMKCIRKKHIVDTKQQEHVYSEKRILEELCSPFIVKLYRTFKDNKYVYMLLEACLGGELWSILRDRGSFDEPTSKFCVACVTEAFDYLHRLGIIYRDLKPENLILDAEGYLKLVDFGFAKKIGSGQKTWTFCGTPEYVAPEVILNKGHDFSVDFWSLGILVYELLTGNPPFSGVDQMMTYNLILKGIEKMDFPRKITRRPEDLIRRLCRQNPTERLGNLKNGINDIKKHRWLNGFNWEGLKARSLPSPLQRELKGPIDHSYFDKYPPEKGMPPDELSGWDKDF
Kind of assay: Residual activity of PRKG2 at 10 uM by microplate scintillation counting.

Assay [9] addresses Serine/threonine-protein kinase 16 (Homo sapiens) (UniProt O75716). Kind of assay: Residual activity of TSF1 at 0.1 uM by microplate scintillation counting.
Assay [10] deals with T3, Tyrosine-protein kinase receptor TYRO3 (Homo sapiens) (UniProt Q06418).
T3 sequence (whole entry): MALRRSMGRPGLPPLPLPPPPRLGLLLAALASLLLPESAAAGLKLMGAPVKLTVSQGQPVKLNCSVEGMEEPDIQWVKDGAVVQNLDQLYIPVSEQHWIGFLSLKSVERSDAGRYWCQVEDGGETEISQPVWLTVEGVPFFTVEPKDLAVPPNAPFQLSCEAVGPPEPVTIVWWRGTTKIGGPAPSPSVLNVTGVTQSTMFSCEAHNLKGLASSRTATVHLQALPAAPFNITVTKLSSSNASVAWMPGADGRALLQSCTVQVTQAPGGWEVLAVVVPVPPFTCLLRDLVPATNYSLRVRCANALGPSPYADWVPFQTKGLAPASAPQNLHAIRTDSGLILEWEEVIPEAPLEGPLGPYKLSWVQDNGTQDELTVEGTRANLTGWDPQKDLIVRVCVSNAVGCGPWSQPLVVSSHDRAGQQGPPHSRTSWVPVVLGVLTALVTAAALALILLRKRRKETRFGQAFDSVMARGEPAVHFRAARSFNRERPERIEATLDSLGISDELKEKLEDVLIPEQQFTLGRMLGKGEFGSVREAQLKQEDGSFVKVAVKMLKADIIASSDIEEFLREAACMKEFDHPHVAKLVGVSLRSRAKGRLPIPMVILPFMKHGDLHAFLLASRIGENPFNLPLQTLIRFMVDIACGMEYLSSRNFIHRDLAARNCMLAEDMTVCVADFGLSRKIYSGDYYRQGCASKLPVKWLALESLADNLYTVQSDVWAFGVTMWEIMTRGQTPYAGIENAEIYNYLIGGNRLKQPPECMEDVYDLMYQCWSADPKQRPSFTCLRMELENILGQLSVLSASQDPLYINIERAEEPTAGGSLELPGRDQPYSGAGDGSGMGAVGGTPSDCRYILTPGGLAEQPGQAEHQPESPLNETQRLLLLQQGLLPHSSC
Nature of the assay: Residual activity of TYRO3 at 10 uM by microplate scintillation counting.

By residual activity is commonly meant the signal under treatment as a percentage of the control signal.

Tyrosine-protein kinase Blk (Homo sapiens), sequence (P51451 2-505 limits assumed): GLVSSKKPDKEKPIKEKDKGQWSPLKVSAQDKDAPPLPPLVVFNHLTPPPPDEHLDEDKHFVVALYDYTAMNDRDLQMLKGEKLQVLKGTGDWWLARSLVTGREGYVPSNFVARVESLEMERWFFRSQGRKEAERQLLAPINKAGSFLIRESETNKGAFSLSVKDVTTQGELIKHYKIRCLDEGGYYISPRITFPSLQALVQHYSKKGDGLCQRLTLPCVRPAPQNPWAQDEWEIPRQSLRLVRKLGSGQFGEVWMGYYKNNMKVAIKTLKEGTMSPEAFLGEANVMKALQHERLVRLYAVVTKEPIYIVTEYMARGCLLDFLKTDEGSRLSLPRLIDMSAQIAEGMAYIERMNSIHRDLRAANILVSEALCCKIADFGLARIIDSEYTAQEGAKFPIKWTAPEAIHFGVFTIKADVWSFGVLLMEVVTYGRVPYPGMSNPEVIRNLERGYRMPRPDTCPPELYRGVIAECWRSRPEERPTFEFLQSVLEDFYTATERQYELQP
Serine/threonine-protein kinase PAK 4 (Homo sapiens), sequence (O96013 whole entry, looked up): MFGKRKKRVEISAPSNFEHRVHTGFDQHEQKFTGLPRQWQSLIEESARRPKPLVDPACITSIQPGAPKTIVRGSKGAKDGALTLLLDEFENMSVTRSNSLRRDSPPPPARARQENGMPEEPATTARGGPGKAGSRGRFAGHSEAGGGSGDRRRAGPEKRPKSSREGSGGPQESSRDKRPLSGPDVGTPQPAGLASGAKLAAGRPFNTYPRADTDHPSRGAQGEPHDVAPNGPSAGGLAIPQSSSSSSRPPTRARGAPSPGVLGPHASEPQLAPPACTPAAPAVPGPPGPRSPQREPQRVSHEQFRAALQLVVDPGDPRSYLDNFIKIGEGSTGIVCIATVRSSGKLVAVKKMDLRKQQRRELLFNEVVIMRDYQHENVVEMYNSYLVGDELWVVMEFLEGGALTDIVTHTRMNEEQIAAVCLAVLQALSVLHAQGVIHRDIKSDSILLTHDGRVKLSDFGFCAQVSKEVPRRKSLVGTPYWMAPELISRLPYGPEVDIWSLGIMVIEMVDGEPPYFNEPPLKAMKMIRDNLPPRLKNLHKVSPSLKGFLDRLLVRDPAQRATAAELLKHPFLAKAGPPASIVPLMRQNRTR
Serine/threonine-protein kinase pim-1 (Homo sapiens), sequence (P11309 whole entry, looked up): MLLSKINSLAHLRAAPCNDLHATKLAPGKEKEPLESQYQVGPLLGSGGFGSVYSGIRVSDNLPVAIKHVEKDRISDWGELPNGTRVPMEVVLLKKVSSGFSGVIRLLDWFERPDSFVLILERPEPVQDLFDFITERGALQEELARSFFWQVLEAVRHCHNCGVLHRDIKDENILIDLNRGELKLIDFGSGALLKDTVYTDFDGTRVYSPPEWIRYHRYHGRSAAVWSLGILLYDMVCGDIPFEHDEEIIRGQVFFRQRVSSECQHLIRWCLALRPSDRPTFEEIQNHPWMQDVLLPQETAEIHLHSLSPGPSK
Death-associated protein kinase 3 (Homo sapiens), sequence (O43293 whole entry, looked up): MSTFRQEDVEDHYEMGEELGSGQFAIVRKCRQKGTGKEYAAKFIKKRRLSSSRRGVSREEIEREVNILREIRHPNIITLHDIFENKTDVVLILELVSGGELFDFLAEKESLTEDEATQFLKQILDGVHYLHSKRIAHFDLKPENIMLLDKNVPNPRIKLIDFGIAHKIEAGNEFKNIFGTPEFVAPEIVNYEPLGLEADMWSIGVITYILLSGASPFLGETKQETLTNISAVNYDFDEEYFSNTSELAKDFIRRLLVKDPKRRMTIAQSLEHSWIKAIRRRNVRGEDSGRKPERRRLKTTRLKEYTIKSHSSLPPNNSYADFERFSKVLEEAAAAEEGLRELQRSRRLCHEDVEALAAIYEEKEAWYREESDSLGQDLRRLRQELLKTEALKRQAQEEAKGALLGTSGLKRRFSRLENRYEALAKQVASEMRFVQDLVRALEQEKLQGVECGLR
Serine/threonine-protein kinase 16 (Homo sapiens), sequence (O75716 whole entry): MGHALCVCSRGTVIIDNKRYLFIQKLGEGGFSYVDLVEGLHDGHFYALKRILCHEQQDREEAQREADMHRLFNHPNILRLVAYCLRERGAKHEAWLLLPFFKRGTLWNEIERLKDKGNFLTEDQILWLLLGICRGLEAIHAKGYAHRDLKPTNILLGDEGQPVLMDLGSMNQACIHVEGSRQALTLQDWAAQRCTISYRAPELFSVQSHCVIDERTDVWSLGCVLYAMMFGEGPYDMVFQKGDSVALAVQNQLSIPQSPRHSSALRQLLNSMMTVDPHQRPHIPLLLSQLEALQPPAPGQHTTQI

In the case of `COc1cc2c(Oc3ccc(-c4nc5ccccc5s4)cc3)ncnc2cc1OCCCN1CCN(C)CC1`, the residual activity was found to be 84% in [1]; 109% in [2]; 105% in assay [3]; 95% in assay [4]; 224% in [5]; 127% in assay [6]. Further, the residual activity in assay [7] was determined as 34%; in assay [8], 119%; in [9], 100%; in assay [10] it was 84%.

For the compound `COc1cc2c(Oc3ccc(-c4nc5ccccc5s4)cc3)ncnc2cc1OCCCN1CCCC1`, the residual activity in assay [1] came to 86%; in assay [2], 104%; in assay [3], 112%; in assay [4], 97%; in assay [5], 136%; in assay [6], 112%. For the same compound, the residual activity in [7] came to 33%; in assay [8], 92%; in [9], 93%; in assay [10], 120%.

For the compound `COc1cc2c(Oc3ccc(-c4nc5ccccc5s4)cc3F)ncnc2cc1OCCCN1CCN(C)CC1`, the residual activity stood at 81% in assay [1]; 102% in assay [2]; 99% in [3]; 96% in [4]; 194% in [5]; 57% in assay [6]. In addition, the residual activity is 10% in assay [7], 96% in [8], 102% in assay [9] and 17% in assay [10].
